Measured values published in article PMC4070716 (Journal of Medicinal Chemistry, 2014).
“Also recorded” adds a separate entry of the source. Read-outs that look alike come from different tables or passages of the source. Marks after values point to notes of the source that are not given here.

What was measured:
human δ opioid receptor [1] = molecular target: T1, human δ opioid receptor (Homo sapiens, UniProt P41143); assay: [35S]GTPγS binding assay, intrinsic; type: biochemical
human δ opioid receptor [2] = molecular target: T1, human δ opioid receptor; assay: Inhibition of DPDPE-stimulated [35S]GTPγS binding; type: biochemical; details: for Ke (nM) δ, DPDPE: cloned human δ receptor in CHO cells, mean ± SE, at least three experiments
human κ opioid receptor [3] = molecular target: T2, human κ opioid receptor (Homo sapiens, UniProt P41145); assay: [35S]GTPγS binding assay, intrinsic; type: biochemical
human μ opioid receptor [4] = molecular target: T3, human μ opioid receptor (Homo sapiens, UniProt P35372); assay: [35S]GTPγS binding assay, intrinsic; type: biochemical
human μ opioid receptor [5] = molecular target: T3, human μ opioid receptor; assay: Inhibition of DAMGO-stimulated [35S]GTPγS binding; type: biochemical; details: for fold more potent antagonist than N-methyl counterpart, μ receptor: ratio of Ke values (a vs b analogue)
human κ opioid receptor [6] = molecular target: T2, human κ opioid receptor; assay: Inhibition of U69,593-stimulated [35S]GTPγS binding; type: biochemical; details: for fold more potent antagonist than N-methyl counterpart, κ receptor: ratio of Ke values (a vs b analogue)
μ receptor = details: mouse writhing test, μ antagonism; cited from earlier work
opioid receptor [7] = details: cited from earlier work
human δ opioid receptor [8] = molecular target: T1, human δ opioid receptor; details: cloned human δ receptor; data taken from ref 15; cited from earlier work
human μ opioid receptor [9] = molecular target: T3, human μ opioid receptor; details: cloned human μ receptor; data taken from ref 15; cited from earlier work
κ receptor = details: mouse writhing test, κ antagonism; cited from earlier work
opioid receptor [10] = details: cited from earlier work; remark: listed apart in the source

T2 sequence (P41145 whole entry): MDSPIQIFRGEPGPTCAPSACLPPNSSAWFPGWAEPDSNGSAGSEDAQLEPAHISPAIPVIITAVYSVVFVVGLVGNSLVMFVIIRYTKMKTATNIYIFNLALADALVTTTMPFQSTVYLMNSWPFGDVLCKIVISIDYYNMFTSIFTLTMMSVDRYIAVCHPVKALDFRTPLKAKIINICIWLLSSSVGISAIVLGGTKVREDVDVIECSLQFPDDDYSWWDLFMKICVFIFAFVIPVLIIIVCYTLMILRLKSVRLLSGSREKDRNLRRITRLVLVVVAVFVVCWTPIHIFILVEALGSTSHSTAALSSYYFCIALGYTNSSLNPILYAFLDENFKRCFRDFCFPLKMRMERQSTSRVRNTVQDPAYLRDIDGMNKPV
T1 sequence (P41143 whole entry): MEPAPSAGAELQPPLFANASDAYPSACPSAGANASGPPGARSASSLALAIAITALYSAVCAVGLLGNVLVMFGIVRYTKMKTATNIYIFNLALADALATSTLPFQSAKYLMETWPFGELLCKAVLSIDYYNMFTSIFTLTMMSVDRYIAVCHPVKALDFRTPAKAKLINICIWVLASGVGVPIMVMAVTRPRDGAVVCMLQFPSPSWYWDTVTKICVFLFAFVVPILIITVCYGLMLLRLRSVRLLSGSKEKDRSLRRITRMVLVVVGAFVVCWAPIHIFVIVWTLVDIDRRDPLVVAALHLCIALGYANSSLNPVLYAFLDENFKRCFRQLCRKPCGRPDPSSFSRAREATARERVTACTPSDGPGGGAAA
T3 sequence (P35372 whole entry): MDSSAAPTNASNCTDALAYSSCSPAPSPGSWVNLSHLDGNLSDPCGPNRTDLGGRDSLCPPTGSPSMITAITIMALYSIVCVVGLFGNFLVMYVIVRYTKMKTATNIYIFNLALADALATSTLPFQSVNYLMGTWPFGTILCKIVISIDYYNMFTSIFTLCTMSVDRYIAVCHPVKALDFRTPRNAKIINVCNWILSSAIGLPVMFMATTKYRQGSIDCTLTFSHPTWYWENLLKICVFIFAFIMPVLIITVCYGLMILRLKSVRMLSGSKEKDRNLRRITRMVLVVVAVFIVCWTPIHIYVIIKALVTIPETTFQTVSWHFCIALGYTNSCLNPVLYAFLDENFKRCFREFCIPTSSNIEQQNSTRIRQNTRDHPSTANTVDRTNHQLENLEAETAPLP

Row | SMILES | agonist activity at 10 μM, δ receptor (human δ opioid receptor [1]) | agonist activity at 10 μM, κ receptor (human κ opioid receptor [3]) | agonist activity at 10 μM, μ receptor (human μ opioid receptor [4]) | Kb (human κ opioid receptor [6]) [nM] | Kb (human μ opioid receptor [5]) [nM] | Kb (human δ opioid receptor [2]) [nM] | other results
1 | C[C@H]1CN(C)CCN1c1cccc(O)c1 [Compound 4a, 3-[(2S)-2,4-Dimethylpiperazin-1-yl]phenol] | no opioid agonist efficacy | no opioid agonist efficacy | no opioid agonist efficacy | – | – | – | Ke (nM) δ, DPDPE (human δ opioid receptor [2]): no antagonism; also recorded: IA ^d
2 | Oc1cccc(N2CCN(CCCc3ccccc3)CC2)c1 [Compound 8b, 3-[4-(3-Phenylpropyl)piperazin-1-yl]phenol] | no opioid agonist efficacy | no opioid agonist efficacy | no opioid agonist efficacy | 36.8 ± 16.8 | – | – | fold more potent antagonist than N-methyl counterpart, μ receptor (human μ opioid receptor [5]): 507 fold; fold more potent antagonist than N-methyl counterpart, δ receptor (human δ opioid receptor [2]; ratio of Ke values (a vs b analogue)): 47 fold
3 | CC1CN(CCCc2ccccc2)CCC1c1cccc(O)c1 (stereo not drawn) [Compound 5b, 3-[3-Methyl-1-(3-phenylpropyl)piperidin-4-yl]phenol] | no agonist efficacy | no agonist efficacy | no agonist efficacy | 16.5 ± 5 | 11.9 ± 2 | 46 ± 18 | fold more potent antagonist than N-methyl counterpart, μ receptor (human μ opioid receptor [5]): 105 fold; fold more potent antagonist than N-methyl counterpart, κ receptor (human κ opioid receptor [6]): 79 fold
4 | CN1CCC(c2cccc(O)c2)CC1 [Compound 7a, 3-(1-Methylpiperidin-4-yl)phenol] | no agonist activity | no agonist activity | no agonist activity | 2700 ± 1300 | – | – | Ke (nM) μ, DAMGO (human μ opioid receptor [5]; cloned human μ receptor in CHO cells, mean ± SE, at least three experiments): inactive; also recorded: no antagonist properties; also recorded: IA ^d; Ke (nM) δ, DPDPE (human δ opioid receptor [2]): inactive; also recorded: no antagonist properties; also recorded: IA ^d
5 | C[C@H]1CN(C)CC[C@@]1(C)c1cccc(O)c1 [Compound 2a, 3-[(3R,4R)-1,3,4-Trimethylpiperidin-4-yl]phenol] | no opioid agonist efficacy | no opioid agonist efficacy | no opioid agonist efficacy | 134 ± 27.1 | – | – | AD50, antagonist of morphine-induced antinociception (μ receptor): 0.74 mg/kg; opioid receptor agonist activity in the mouse writhing test (opioid receptor [7]): did not have any opioid receptor agonist activity; Ke (nM) δ, DPDPE (human δ opioid receptor [8]): 681 ± 241 ^b nM; Ke (nM) μ, DAMGO (human μ opioid receptor [9]): 29.3 ± 3.4 ^b nM; AD50, antagonist of U50,488-induced antinociception (κ receptor): > 5.0 mg/kg; opioid receptor agonist activity in the rat tail heat analgesic test (opioid receptor [10]): did not have any opioid receptor agonist activity
6 | C[C@H]1CN(CCCc2ccccc2)CCN1c1cccc(O)c1 [Compound 4b, 3-[(2S)-2-Methyl-4-(3-phenylpropyl)piperazin-1-yl]phenol] | no opioid agonist efficacy | no opioid agonist efficacy | no opioid agonist efficacy | – | – | – | –
7 | C[C@H]1CN(CCCc2ccccc2)CC[C@@]1(C)c1cccc(O)c1 [Compound 2b, 3-[(3R,4R)-3,4-Dimethyl-1-(3-phenylpropyl)piperidin-4-yl]phenol] | – | – | – | 0.88 ± 0.17 | – | – | AD50, antagonist of morphine-induced antinociception (μ receptor): 0.28 mg/kg; Ke (nM) δ, DPDPE (human δ opioid receptor [8]): 0.9 ± 0.32 ^b nM; Ke (nM) μ, DAMGO (human μ opioid receptor [9]): 0.1 ± 0.02 ^b nM
8 | Oc1cccc(C2CCN(CCCc3ccccc3)CC2)c1 [Compound 7b, 3-[1-(3-Phenylpropyl)piperidin-4-yl]phenol] | no agonist efficacy | no agonist efficacy | no agonist efficacy | 5.8 ± 2 | 75.6 ± 21 | 418 ± 120 | –
9 | CC1CN(C)CCC1c1cccc(O)c1 (stereo not drawn) [Compound 5a, 3-(1,3-Dimethylpiperidin-4-yl)phenol] | – | – | – | 1310 ± 447 | 1250 ± 423 | – | –
10 | CN1CCC(C)(c2cccc(O)c2)CC1 [Compound 6a, 3-(1,4-Dimethylpiperidin-4-yl)phenol] | – | – | – | 477 ± 150 | 974 ± 230 | – | EC50 (human δ opioid receptor [1]): 8300 nM; Ke (nM) δ, DPDPE (human δ opioid receptor [2]): agonist ^c
11 | CN1CCN(c2cccc(O)c2)CC1 [Compound 8a, 3-(4-Methylpiperazin-1-yl)phenol] | no opioid agonist efficacy | no opioid agonist efficacy | no opioid agonist efficacy | – | 4300 ± 1700 | 1600 ± 480 | –
12 | CC1(c2cccc(O)c2)CCN(CCCc2ccccc2)CC1 [Compound 6b, 3-[4-Methyl-1-(3-phenylpropyl)piperidin-4-yl]phenol] | no agonist efficacy | no agonist efficacy | no agonist efficacy | 21.3 ± 9 | 5.5 ± 0.59 | 178 ± 47 | fold more potent antagonist than N-methyl counterpart, μ receptor (human μ opioid receptor [5]): 177 fold; fold more potent antagonist than N-methyl counterpart, κ receptor (human κ opioid receptor [6]): 22 fold
